In ChEMBL document CHEMBL4043224, “d-Amino acid mutation of PMI as potent dual peptide inhibitors of p53-MDM2/MDMX interactions” (Bioorg Med Chem Lett, 2017):
pIC50: −log10 of the molar value.

How the values were obtained:
Cathepsin G [1] = target: T1, Cathepsin G (Homo sapiens, UniProt P08311); assay: Drug metabolism assessed as cathepsin G (unknown origin)-mediated compound hydrolysis after 4 hrs by RP-HPLC analysis; format: ADME
T1 sequence (P08311 whole entry): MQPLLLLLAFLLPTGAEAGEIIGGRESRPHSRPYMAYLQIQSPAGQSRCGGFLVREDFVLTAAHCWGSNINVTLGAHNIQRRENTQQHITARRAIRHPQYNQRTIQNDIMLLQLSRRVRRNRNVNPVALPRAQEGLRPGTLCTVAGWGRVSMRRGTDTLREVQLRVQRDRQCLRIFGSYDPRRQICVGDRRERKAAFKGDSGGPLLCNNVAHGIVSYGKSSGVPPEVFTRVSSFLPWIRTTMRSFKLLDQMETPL

[2] = Cytotoxicity against human U87 cells assessed as reduction in cell viability after 24 hrs by MTT assay; details: U-87 MG
Cathepsin G [3] = target: T1, Cathepsin G; assay: Drug metabolism assessed as cathepsin G (unknown origin)-mediated compound hydrolysis after 8 hrs by RP-HPLC analysis; format: ADME

Molecule | Drug metabolism (Cathepsin G [1]) | pIC50 [2] | Drug metabolism (Cathepsin G [3])
H-TSFAEYWNLLSP-OH | Metabolite_Detected | 4.17 | –
CC(C)C[C@H](NC(=O)[C@H](CC(N)=O)NC(=O)[C@H](Cc1c[nH]c2ccccc12)NC(=O)[C@H](Cc1ccc(O)cc1)NC(=O)[C@H](CCC(=O)O)NC(=O)[C@H](C)NC(=O)[C@H](Cc1ccccc1)NC(=O)[C@H](CO)NC(=O)[C@@H](N)[C@@H](C)O)C(=O)N[C@@H](CC(C)C)C(=O)N[C@H](Cc1ccccc1)C(=O)N1CCC[C@H]1C(=O)O | – | 4.27 | Metabolite_Detected
CC(C)C[C@H](NC(=O)[C@H](CC(N)=O)NC(=O)[C@H](Cc1c[nH]c2ccccc12)NC(=O)[C@H](Cc1ccc(O)cc1)NC(=O)[C@H](CCC(=O)O)NC(=O)[C@H](C)NC(=O)[C@H](Cc1ccccc1)NC(=O)[C@H](CO)NC(=O)[C@@H](N)[C@@H](C)O)C(=O)N[C@@H](CC(C)C)C(=O)N[C@@H](C(=O)N1CCC[C@H]1C(=O)O)[C@H](C)O | – | 4.34 | –
CC(C)C[C@H](NC(=O)[C@H](CC(N)=O)NC(=O)[C@H](Cc1c[nH]c2ccccc12)NC(=O)[C@H](Cc1ccc(O)cc1)NC(=O)[C@H](CCC(=O)O)NC(=O)[C@H](C)NC(=O)[C@H](Cc1ccccc1)NC(=O)[C@H](CO)NC(=O)[C@@H](N)[C@@H](C)O)C(=O)N[C@@H](CC(C)C)C(=O)N[C@H](Cc1ccc(O)cc1)C(=O)N1CCC[C@H]1C(=O)O | – | 4.51 | –
COc1ccc(C2=N[C@H](c3ccc(Cl)cc3)[C@H](c3ccc(Cl)cc3)N2C(=O)N2CCNC(=O)C2)c(OC(C)C)c1 | – | 5.23 | –
CC(C)C[C@H](NC(=O)[C@H](CC(N)=O)NC(=O)[C@H](Cc1c[nH]c2ccccc12)NC(=O)[C@H](Cc1ccc(O)cc1)NC(=O)[C@H](CCC(=O)O)NC(=O)[C@H](C)NC(=O)[C@H](Cc1ccccc1)NC(=O)[C@H](CO)NC(=O)[C@@H](N)[C@@H](C)O)C(=O)N[C@@H](CC(C)C)C(=O)N[C@H](Cc1cnc[nH]1)C(=O)N1CCC[C@H]1C(=O)O | – | 4.36 | –
